Measured values: patent US20260166162A1, “CARBON CHAIN SUBSTANCE FOR REGULATING TRANSMEMBRANE TRANSPORT AND FLUIDITY OF CELL MEMBRANES, AND PREPARATION AND USE THEREOF” (priority 2022, published 2026)
Read-outs that look alike come from different tables or passages of the source.

Key:
[1] = system: rabies pseudovirus; type: cell-based
[2] = system: 293T cells; test: Cellular phagocytosis of DiD-loaded lipid vesicles (nano-drugs) by 293T cells (Example II-51, Table II-29); type: cell-based; details: 293T cells pretreated 4 h, DiD lipid vesicles 2 h, n=3, untreated control 226.46 ± 1.26
[3] = system: influenza pseudovirus H7N9-Fluc; test: microbe, parasite or virus in culture; type: cell-based; details: n=3; for inhibition at 0.002 µM / inhibition at 0.005 µM / inhibition at 0.01 µM / inhibition at 0.05 µM / inhibition at 0.1 µM / inhibition at 1 µM / inhibition at 10 µM / inhibition at 50 µM / inhibition at 100 µM: Pseudovirus, H7N9, read-out: Inhibition rate (%)
[4] = system: TNF-α; test: Skin photoaging (UVB) in BALB/c nude mice, serum TNF-α (Example II-54, Table II-32); type: in vivo, mouse; details: UVB-irradiated BALB/c nude mice, 40 days
[5] = system: IL-1β; test: Skin photoaging (UVB) in BALB/c nude mice, serum IL-1β (Example II-54, Table II-33); type: in vivo, mouse; details: serum, UVB-irradiated BALB/c nude mice, 40 days
[6] = system: IL-6; test: Skin photoaging (UVB) in BALB/c nude mice, serum IL-6 (Example II-54, Table II-34); type: in vivo, mouse; details: serum, UVB-irradiated BALB/c nude mice, 40 days
[7] = system: HIV pseudovirus (18A-41); type: cell-based; details: 293T cells pretreated 4 h, n=3

Compound	Fluorescence intensity ([2]; 2 nM)	Fluorescence intensity ([2]; 5 nM)	Fluorescence intensity ([2]; 10 nM)	Fluorescence intensity ([2]; 50 nM)	Fluorescence intensity ([2]; 100 nM)	Fluorescence intensity ([2]; 1 uM)	Fluorescence intensity ([2]; 10 uM)	Fluorescence intensity ([2]; 50 uM)	Fluorescence intensity ([2]; 100 uM)	Inhibition rate (%) ([3]; 2 nM)	Inhibition rate (%) ([3]; 5 nM)	Inhibition rate (%) ([3]; 10 nM)	Inhibition rate (%) ([3]; 50 nM)	Inhibition rate (%) ([3]; 100 nM)	Inhibition rate (%) ([3]; 1 μM)	Inhibition rate (%) ([3]; 10 μM)	Inhibition rate (%) ([3]; 50 μM)	Inhibition rate (%) ([3]; 100 μM)	other results
CC/C=C\C/C=C\C/C=C\C/C=C\C/C=C\C/C=C\CCC(=O)OCC(O)C1OC(=O)C(O)=C1O (centres unmarked) [Ascorbic Acid-DHA]	98.37 ± 7.89	92.26 ± 8.23	69.70 ± 4.55	73.98 ± 5.36	243.38 ± 11.00	253.70 ± 10.23	58.97 ± 1.55	39.02 ± 1.03	19.86 ± 0.23										Inhibition rate (%) ([1]; 2 nM, n=3): 51.40 ± 1.54%; Inhibition rate (%) ([1]; 5 nM, n=3): 51.99 ± 3.99%; Inhibition rate (%) ([1]; 10 nM, n=3): 64.84 ± 6.57%; Inhibition rate (%) ([1]; 50 nM, n=3): 70.88 ± 4.22%; Inhibition rate (%) ([1]; 100 nM, n=3): 79.06 ± 2.39%; Inhibition rate (%) ([1]; 1 μM, n=3): 14.83 ± 4.26%; Inhibition rate (%) ([1]; 10 μM, n=3): 34.88 ± 5.99%; Inhibition rate (%) ([1]; 50 μM, n=3): 95.55 ± 6.98%; Inhibition rate (%) ([1]; 100 μM, n=3): 99.08 ± 6.36%
CCCCCCCCCC(=O)O [N-decanoic acid]	131.26 ± 8.63	114.00 ± 11.2	94.34 ± 7.54	96.63 ± 6.99	143.94 ± 13.26	237.62 ± 17.5	147.74 ± 14.23	135.74 ± 15.2	127.34 ± 12.22	35.04 ± 2.04	31.86 ± 2.23	66.11 ± 2.33	75.38 ± 2.03	75.54 ± 4.00	-32.33 ± 1.56	-54.38 ± 4.38	41.08 ± 4.08	47.98 ± 3.09	
CCCCCCCCC(=O)O [Nonanoic acid]	157.30 ± 7.06	176.50 ± 7.06	106.35 ± 4.65	98.90 ± 8.26	106.35 ± 5.06	243.20 ± 13.65	135.36 ± 11.03	64.86 ± 5.54	104.28 ± 10.25										inhibition at 0.002 µM ([3]; 2 nM): 42 ± 3.06%; inhibition at 0.005 µM ([3]; 5 nM): 49.7 ± 1.56%; inhibition at 0.01 µM ([3]; 10 nM): 58.3 ± 4.02%; inhibition at 0.05 µM ([3]; 50 nM): 57.3 ± 1.66%; inhibition at 0.1 µM ([3]; 100 nM): 36.4 ± 2.33%; inhibition at 1 µM ([3]; 1 μM): -4.93 ± 0.23%; inhibition at 10 µM ([3]; 10 μM): 34.8 ± 3.06%; inhibition at 50 µM ([3]; 50 μM): 40.1 ± 1.23%; inhibition at 100 µM ([3]; 100 μM): 43.8 ± 4.38%
CCC=CCC=CCC=CCCCCCCCC(=O)OCC(N)C(=O)O (centres unmarked) [Ser-linolenic acid]																			TNF-α ([4]; 30 μM smeared): 51 pg/mL; TNF-α ([4]; 50 μM smeared): 49 pg/mL; TNF-α ([4]; 100 μM smeared): 47 pg/mL; IL-1β ([5]; 30 μM smeared): 62 pg/mL; IL-1β ([5]; 50 μM smeared): 53 pg/mL; IL-1β ([5]; 100 μM smeared): 58 pg/mL; IL-6 ([6]; 30 μM smeared): 29 pg/mL; IL-6 ([6]; 50 μM smeared): 33 pg/mL; IL-6 ([6]; 100 μM smeared): 31 pg/mL
C=CCCCCCCCCC(=O)[O-].[Na+] [Sodium undecylenate]	135.63 ± 7.06	100.34 ± 8.06	89.79 ± 4.98	62.57 ± 3.60	57.18 ± 5.23	232.89 ± 12.26	325.29 ± 15.22	63.77 ± 3.37	58.70 ± 2.66										inhibition at 0.002 µM ([3]; 2 nM): 30.5 ± 2.36%; inhibition at 0.005 µM ([3]; 5 nM): 22.1 ± 2.14%; inhibition at 0.01 µM ([3]; 10 nM): 53 ± 5.03%; inhibition at 0.05 µM ([3]; 50 nM): 56.3 ± 5.03%; inhibition at 0.1 µM ([3]; 100 nM): 53 ± 4.06%; inhibition at 1 µM ([3]; 1 μM): -7.39 ± 0.22%; inhibition at 10 µM ([3]; 10 μM): 40.2 ± 3.23%; inhibition at 50 µM ([3]; 50 μM): 71.4 ± 3.26%; inhibition at 100 µM ([3]; 100 μM): 54 ± 4.39%
CCCCCC/C=C\CCCCCCCC(=O)OC(C)C(N)C(=O)O (centres unmarked) [Threonine-c-9-hexadecanoic acid]										56.47 ± 5.47	79.21 ± 5.22	60.86 ± 4.03	59.03 ± 1.64	68.64 ± 2.03	12.84 ± 1.03	34.49 ± 4.49	71.06 ± 4.08	78.34 ± 4.39	
Cc1c(C)c2c(c(C)c1O)CCC(C)(CCCC(C)CCCC(C)CCCC(C)C)O2 (centres unmarked) [Vitamin-E, Vitamin E]	100.41 ± 4.43	86.35 ± 2.47	67.85 ± 1.43	46.81 ± 1.48	22.67 ± 0.03	417.43 ± 15.23	217.04 ± 7.44	87.50 ± 2.33	92.89 ± 5.33										Inhibition rate (%) ([7]; 2 nM): 55.66 ± 6.03%; Inhibition rate (%) ([7]; 5 nM): 61.87 ± 5.06%; Inhibition rate (%) ([7]; 10 nM): 70.04 ± 4.65%; Inhibition rate (%) ([7]; 50 nM): 79.33 ± 5.89%; Inhibition rate (%) ([7]; 100 nM): 89.99 ± 8.97%; Inhibition rate (%) ([7]; 1 μM): -84.33 ± 6.36%; Inhibition rate (%) ([7]; 10 μM): 4.16 ± 0.11%; Inhibition rate (%) ([7]; 50 μM): 61.36 ± 8.64%; Inhibition rate (%) ([7]; 100 μM, negative value = promotes infection): 58.98 ± 6.37%
Ascorbic acid-undecanedioic acid										36.88 ± 5.99	70.10 ± 2.01	71.74 ± 5.03	67.01 ± 5.59	74.96 ± 2.33	32.33 ± 2.37	44.08 ± 1.28	83.56 ± 4.03	73.01 ± 4.05	
Glucose-oleic acid	102.16 ± 8.65	92.37 ± 4.56	65.99 ± 6.23		71.02 ± 4.02	436.71 ± 15.66	216.29 ± 5.24	42.89 ± 2.32	26.41 ± 5.32										Inhibition rate (%) ([1]; 0.002 µM): 50.11 ± 3.11%; Inhibition rate (%) ([1]; 0.005 µM): 65.69 ± 6.69%; Inhibition rate (%) ([1]; 0.01 µM): 80.35 ± 2.06%; Inhibition rate (%) ([1]; 0.05 µM): 72.37 ± 3.37%; Inhibition rate (%) ([1]; 0.1 µM): 71.05 ± 2.54%; Inhibition rate (%) ([1]; 1 µM): -14.84 ± 1.54%; Inhibition rate (%) ([1]; 10 µM): -33.5 ± 2.54%; Inhibition rate (%) ([1]; 50 µM): 70.04 ± 5.07%; Inhibition rate (%) ([1]; 100 µM): 80.21 ± 5.30%
